{
  "source": "patent US20260240845A1",
  "about": "“METHODS FOR TREATING OR PREVENTING CORONAVIRUS INFECTION SKELETAL SEQUELAE” (priority 2023, published 2026)",
  "key": {"C28/12": {"system": "C28/12", "assay": "Rescue effect of macitentan on SP RBD-induced oxidative stress and mitochondrial dynamics in chondrocytes (CellROX, MitoTracker)", "type": "cell-based, human", "details": "C28/12 pre-treated with 10 μM Macitentan for 30 minutes, then SP RBD 10 μg/ml for 1 h", "experimental": "Chondrocyte cell lines C28/12 (human), ATDC5 (mouse) and human umbilical vein endothelial cells (HUVEC) were received as gifts from Prof. Danny Chan from the University of Hong Kong, Prof. Limin Rong from Sun Yat-Sen University and Prof.\nMo Yang from the Hong Kong Polytechnic University respectively. Both chondrocyte cell lines were maintained in DMEM/F12 culture medium supplemented with 5% heat-inactivated FBS, 50 U ml^−1 penicillin and 50 μg ml-^1 streptomycin. HUVEC were cultured in endothelial cell medium with 1% endothelial cell growth supplement and 1% antibiotic solution (ScienCell).\nTo investigate the rescue effect of Macitentan on RBD-induced oxidative stress accumulation and change in mitochondrial dynamics, cells seeded on coverslips were pre-treated with 10 μM Macitentan for 30 minutes before adding RBD for an hour.\nTo evaluate cellular oxidative stress, CellROX® Deep Red Reagent solution (Invitrogen) was used according to the manufacturer's instructions. Positive signal was visualized by excitation/emission at 640/665 nm. For visualising mitochondrial morphology, we stained the cells using Mito Tracker® Red CMXRos (Invitrogen) with excitation/emission at 579/599 nm. Cells were then counterstained and mounted by ProLong® Gold antifade reagent with 4′, 6-diamidino-2-phenylindole (DAPI). All the images were captured using Leica TCS SPE Confocal microscope."}, "[1]": {"system": "SARS-COV-2-infected hamsters", "set-up": "species or system golden Syrian hamsters (Mesocricetus auratus)", "details": "hamster, in vivo"}, "[2]": {"system": "mice injected with SP RBD", "set-up": "species or system Balb/c mice", "details": "mouse, in vivo"}, "[3]": {"system": "SARS-COV-2-infected hamsters", "set-up": "species or system golden Syrian hamsters (Mesocricetus auratus)", "details": "hamster, in vivo", "remark": "listed apart in the source"}},
  "note": "Entries after “also recorded” stand apart in the source; their conditions may differ.",
  "data": [
    {"smiles": "CCCNS(=O)(=O)Nc1ncnc(OCCOc2ncc(Br)cn2)c1-c1ccc(Br)cc1", "note": "[macitentan]", "values": [
      {"measurement": "SP RBD-induced cellular oxidative stress (CellROX staining)", "setting": "C28/12", "result": "effectively lowered SARS-COV-2 spike protein-induced increase in oxidative stress"},
      {"measurement": "mitochondrial dynamics / morphology (MitoTracker staining)", "setting": "C28/12", "result": "showed restoration of rod-like structures"},
      {"measurement": "4HNE expression level in bone marrow cavity of subchondral bone (oxidative stress)", "setting": "[1]", "result": "lowered vWF and 4HNE expression level"},
      {"measurement": "BV/TV (micro-CT)", "setting": "[1]", "result": "no significant difference"},
      {"measurement": "amount of viral spike protein at local joint tissue (subchondral bone marrow cavity)", "setting": "[1]", "result": "tended to lower the amount of viral spike protein"},
      {"measurement": "area of the cysts at the osteochondral junction", "setting": "[1]", "result": "effectively reducing the area of the cysts"},
      {"measurement": "articular surface roughness", "setting": "[1]", "result": "No statistical significance"},
      {"measurement": "collagen loss (Masson's trichrome staining)", "setting": "[1]", "result": "prevented virus-induced collagen loss"},
      {"measurement": "fibrin exudate at the osteochondral junction", "setting": "[1]", "result": "decreasing the fibrin exudate"},
      {"measurement": "number of SP7+ osteoblasts progenitors", "setting": "[1]", "result": "without affecting the number of SP7^+ osteoblasts progenitors"},
      {"measurement": "number of TRAP+ osteoclasts in subchondral bone", "setting": "[1]", "result": "significantly lower number of TRAP^+ osteoclasts"},
      {"measurement": "number of chondrocytes in articular cartilage", "setting": "[1]", "result": "More chondrocytes were observed"},
      {"measurement": "number of cytoplasmic HMGB1 cells in articular cartilage", "setting": "[1]", "result": "decrease in the number of nuclear p16^INK4a and cytoplasmic HMGB1 cells"},
      {"measurement": "number of nuclear p16INK4a cells in articular cartilage", "setting": "[1]", "result": "decrease in the number of nuclear p16^INK4a"},
      {"measurement": "subchondral BMD (micro-CT)", "setting": "[1]", "result": "could restore subchondral BMD"},
      {"measurement": "vWF expression level in bone marrow cavity of subchondral bone", "setting": "[1]", "result": "lowered vWF and 4HNE expression level"},
      {"measurement": "SP RBD-induced subchondral bone loss (micro-CT, proximal epiphysis of tibia)", "setting": "[2]", "result": "rescue effect of macitentan on SP RBD-induced bone loss"},
      {"measurement": "accumulation of senescent chondrocytes (p16INK4a, HMGB1) in articular cartilage", "setting": "[2]", "result": "preventing accumulation of senescent chondrocytes"},
      {"measurement": "proteoglycan in articular cartilage (Safranin O/fast green)", "setting": "[2]", "result": "performed better in terms of preserving proteoglycan"},
      {"measurement": "paw withdrawal threshold / nociceptive tolerance (von Frey filament test)", "setting": "[2]; ip, 0.3 mg/kg", "result": "able to attain the same nociceptive tolerance as high dose after 12 days"},
      {"measurement": "paw withdrawal threshold (von Frey filament test)", "setting": "[2]; ip, 3 mg/kg", "result": "increase in paw withdrawal threshold after 5 days of treatment; also recorded: faster analgesic effect at the higher dose"},
      {"measurement": "BMD in tibial epiphysis (micro-CT)", "setting": "[3]", "result": "improvement in subchondral bone mass and microstructure; also recorded: significant increase in BMD and BV/TV"},
      {"measurement": "BV/TV in tibial epiphysis (micro-CT)", "setting": "[3]", "result": "improvement in subchondral bone mass and microstructure; also recorded: significant increase in BMD and BV/TV"},
      {"measurement": "amount of viral spike protein retained (subchondral bone marrow cavity)", "setting": "[3]", "result": "could reduce the amount of viral spike protein retained"},
      {"measurement": "articular cartilage structure", "setting": "[3]", "result": "did not lead to further improvement in articular cartilage structurally"},
      {"measurement": "chondrocyte dropout", "setting": "[3]", "result": "slight yet not significant improvement"},
      {"measurement": "cyst formation", "setting": "[3]", "result": "slight yet not significant improvement"},
      {"measurement": "expression level of vWF in bone marrow", "setting": "[3]", "result": "could effectively lower the expression level of vWF"},
      {"measurement": "number of SP7+ osteoblast progenitors", "setting": "[3]", "result": "increased the number of SP7^+ osteoblast progenitors"},
      {"measurement": "number of TRAP+ osteoclasts", "setting": "[3]", "result": "without affecting the number of TRAP^+ osteoclasts"},
      {"measurement": "number of senescent chondrocytes in articular cartilage (p16INK4a and HMGB1 staining)", "setting": "[3]", "result": "effectively lower the number of senescent chondrocytes"},
      {"measurement": "oxidative stress near vessels (4HNE staining)", "setting": "[3]", "result": "reduction of oxidative stress near vessels"},
      {"measurement": "trabecular number in tibial epiphysis (micro-CT)", "setting": "[3]", "result": "improvement in subchondral bone mass and microstructure"},
      {"measurement": "trabecular separation in tibial epiphysis (micro-CT)", "setting": "[3]", "result": "improvement in subchondral bone mass and microstructure"},
      {"measurement": "trabecular thickness in tibial epiphysis (micro-CT)", "setting": "[3]", "result": "improvement in subchondral bone mass and microstructure"}
    ]}
  ]
}
